≈ marks a conversion by molar mass, not a printed value. Where “and” joins values, the source holds several entries; their conditions need not be identical. Identical values can stand only once. Entries after “also recorded” stand apart in the source; their conditions may differ. Marks after values point to notes of the source that are not given here.
Columns and labels:
[1] = system: Taxol-induced neuropathic pain; test: Von Frey test (mechanical allodynia) in Taxol induced model of neuropathic pain; type: in vivo, rat
Experimental: Neuropathic pain was induced by intraperitoneal administration of Taxol at a dose level of 6 mg/kg on study days 0-6 and 12 mg/kg on study days 7-12. Following injection of Taxol animals experienced pain as was assessed using the von Frey test. The development of neuropathic pain was confirmed by measuring mechanical allodynia (Von Frey test) on study day 13 (for inclusion) and on study day 14 (1 hour and 2 hour post dosing) and 24 hour post first dosing.
All data are presented as means±SEM. Each treatment group was compared to the Vehicle group using Two way ANOVA (for VF) followed by Tukey post-test (GraphPad). Vehicle group is compared to naïve group using T-test. A p value<0.05 is considered to represent a significant difference.
The response to tactile allodynia was evaluated using the Von Frey apparatus (Touch Test®). The rat was placed in an enclosure and positioned on a metal mesh surface, but allowed to move freely. A set of dull monofilaments provide an increasing force was applied on the animal plantar surface of the paw. The lowest force requires for animal paw withdrawal was recorded. Low force values recorded in this test indicate a painful state.

[2] = Solubility of purified LR-90 in different vehicles; type: physicochemical
Experimental: In order to develop a vehicle formulation for LR-90 for use in humans, 15 different vehicles were tested to measure the solubility of the purified LR-90 (Table 6).

[3] = Pharmacokinetic study following a single oral administration; type: in vivo, Sprague-Dawley (SD) rats; conditions: in 20% HPβCD in pH 8.0 buffer; 50 mg/kg oral gavage; vs salt in water, 4% DMSO in corn oil, Ora-Blend SF
Experimental: Pharmacokinetic studies of four different formulations of LR-90 were investigated. LR-90 either in salt formulation dissolved in water, in 4% DMSO in corn oil, in 20% HPβCD in pH 8.0 buffer, and in Ora-Blend SF was delivered at a dose of 50 mg/kg by oral gavage in Sprague-Dawley (SD) rats. Blood samples were collected at 0 min, 15 min, 30 min, 1 hr, 2 hr, 4 hr, 8 hr, 24 hr and 48 hr post-dosing. LR-90 level was determined in plasma by LC-MS/MS assay.

[4] = Solubility of purified LR-90 in different vehicles; type: physicochemical; conditions: 20% HPβCD in pH 8.0 buffer (w/v); 5 or 10 mg/ml

In the case of `CC(C)(Oc1ccc(NC(=O)Nc2ccc(Cc3ccc(NC(=O)Nc4ccc(OC(C)(C)C(=O)O)cc4)c(Cl)c3)cc2Cl)cc1)C(=O)O` [LR-90, methylene bis[4,4′-(2-chlorophenylureidophenoxyisobutyric acid)]], the “effect on the sensitivity of the treated animals to mechanical stimulation” value ([1]; 25 mg/kg) is reported as “No significant effect”, the “mean Von Frey force required for withdrawal” value (“mean Von Frey force required” for short) ([1]; 25 mg/kg PO, Group 6, Baseline) is reported as 60.00 g and the “mean Von Frey force required” value ([1]; 25 mg/kg PO, Group 6, Day 13 pre dosing) is reported as 9.81 g. For the same compound, the “mean Von Frey force required” value ([1]; 25 mg/kg PO, Group 6, Day 14 1 hour post dosing) was 21.88 g, the “mean Von Frey force required” value ([1]; 25 mg/kg PO, Group 6, Day 14 2 hours post dosing) was 17.31 g and the “mean Von Frey force required” value ([1]; 25 mg/kg PO, Group 6, Day 15 24 hours post dosing) was 14.13 g. The “effect on the sensitivity of the treated animals to mechanical stimulation” value ([1]; 50 mg/kg) was “No significant effect”, the “mean Von Frey force required” value ([1]; 50 mg/kg PO, Group 5, Baseline) was 60.00 g and the “mean Von Frey force required” value ([1]; 50 mg/kg PO, Group 5, Day 13 pre dosing) was 9.81 g. For the same compound, the “mean Von Frey force required” value ([1]; 50 mg/kg PO, Group 5, Day 14 1 hour post dosing) was 17.38 g, the “mean Von Frey force required” value ([1]; 50 mg/kg PO, Group 5, Day 14 2 hours post dosing) was 22.13 g and the “mean Von Frey force required” value ([1]; 50 mg/kg PO, Group 5, Day 15 24 hours post dosing) was 16.75 g. The “mean Von Frey force required” value ([1]; 100 mg/kg PO, Group 4, Baseline) was 57.88 g, the “mean Von Frey force required” value ([1]; 100 mg/kg PO, Group 4, Day 13 pre dosing) was 10.06 g and the “mean Von Frey force required” value ([1]; 100 mg/kg PO, Group 4, Day 14 1 hour post dosing) was 34.69**** g. The “mean Von Frey force required” value ([1]; 100 mg/kg PO, Group 4, Day 14 2 hours post dosing) was 32.56±7.56 g and 32.56*** g, the “mean Von Frey force required” value ([1]; 100 mg/kg PO, Group 4, Day 15 24 hours post dosing) was 26.25 g and the “effect on neuropathic pain compared to the vehicle group (Von Frey test)” value ([1]; 100 mg/kg, Group 4, 1 hour and 2 hour post dosing on study day 14) was “statistically significantly reduced the neuropathic pain; also recorded: significantly effective in reducing neuropathic pain”. For the same compound, the Solubility ([2]; Media: 10% Kolliphor RH40 in water (W/V)) was 1220 µg/mL (≈ 1.72 mM), the Solubility ([2]; Media: 10% Solutol in water (W/V)) was 1250 µg/mL (≈ 1.76 mM) and the Solubility ([2]; Media: 10% TPGS in water (W/V)) was 560 µg/mL (≈ 0.789 mM). It also gave a Solubility ([2]; Media: 20% Labsol tn water (W/V)) of 1650 µg/mL (≈ 2.33 mM), a Solubility ([2]; Media: 30% Captisol in water (W/V)) of 1710 µg/mL (≈ 2.41 mM) and a Solubility ([2]; Media: 40% HPβCD in water (W/V)) of 3660 µg/mL (≈ 5.16 mM). The Solubility ([2]; Media: DMA) was greater than 531000 µg/mL, the Solubility ([2]; Media: DMSO) was greater than 258500 µg/mL and the Solubility ([2]; Media: EtOH) was greater than 4600 µg/mL. It also gave a Solubility ([2]; Media: PEG300) greater than 16790 µg/mL, a Solubility ([2]; Media: PEG400) greater than 10100 µg/mL and a Solubility ([2]; Media: PG) greater than 2270 µg/mL. For the same compound, the Solubility ([2]; Media: pH 6.8) was 1670 µg/mL (≈ 2.35 mM), the Solubility ([2]; Media: pH 8) was 7120 µg/mL (≈ 10 mM) and the “pharmacokinetics (plasma LR-90 level) compared with the three other formulations” value [3] was “superior”. The “dissolution to a solution of the drug target concentration” value [4] was “could be dissolved”.

From patent US20230048576A1, “COMPOUNDS FOR THE TREATMENT OF NEUROPATHIC PAIN” (City of Hope, priority 2019, published 2023)
